US20190216751A1, “Compositions and Methods for the Treatment and Prevention of Cancer” (California State University Northridge, priority 2017, published 2019)

How the values were obtained:
[1] = test system: FOXP3+ T regulatory cell populations; conditions: increasing concentrations of GC7, type 1 diabetic mice in vivo; cited from earlier work
[2] = test system: human triple negative breast cancer cells; test: Cell proliferation assay and hypusine western blot, response to GC7; type: cell-based; conditions: FIGS. 2A and 3A
Procedure: Cell lines were plated in a 6 well plate at 1e5 cells/mL and left to attach overnight. Cells were then treated if necessary then lysed using Radioimmunoprecipitation assay (RIPA) buffer containing phosphatase and protease inhibitors and left to rotate at 4° C. for at least 3 hours. Lysates were then cleared by centrifugation at 12,000 RPM for 10 minutes at 4° C. Protein concentrations were determined using Bradford Assay. 4-12% Bis-Tris […] gels were used to run protein lysates at 20 μg of protein that were stained with NuPage LDS Sample Buffer. Gels were then transferred onto nitrocellulose membranes and exposed to primary antibody solutions at the following concentrations for each indicated antibody. PEAK1 (Millipore 1:400), E-cadherin (Cell Signaling 1:1,000), Hypusine (Thermo Scientific 1:1,000), eIF5A (Thermo Scientific 1:1,000) and β-actin (Pro-Sci 1:1,000). Secondary antibodies were used at a 1:5,000-1:10,000 dilution. Band intensity graphs were quantified using Fiji software after image thresholding.
The CellTiter 96® AQueous One Solution (Promega) was used to perform cell proliferation experiments. Cells were plated at 5e3 cells/mL at 200 μL/well in a 96-well plate and allowed to attach overnight. […] Absorbance readings were measured at 490 nm wavelength at 1.5, 2 and 3 hours (absorbance is directly proportional to the number of living cells).

MCF10A = test: Cell proliferation assay (CellTiter 96 AQueous One, MTS); type: cell-based, human; conditions: non-malignant mammary cell line
Procedure: (§1) The CellTiter 96® AQueous One Solution (Promega) was used to perform cell proliferation experiments. Cells were plated at 5e3 cells/mL at 200 μL/well in a 96-well plate and allowed to attach overnight. Cells were then treated with indicated drugs the next day at various concentrations. After 72 hours of drug treatments, 40 μL of AQueous One solution was added to each well. Absorbance readings were measured at 490 nm wavelength at 1.5, 2 and 3 hours (absorbance is directly proportional to the number of living cells).

67NR cells = test: as above; type: cell-based, mouse
Text: (§2) The next research questions revolved around asking how TGFβ is regulating eIF5A and what other proteins might be involved to completely block TGFβ-induced EMT. This led to histone deacetylase enzyme 6 (HDAC6). HDAC6 has been previously reported to be responsible for the deacetylation of eIF5A in the nucleus in order to make it readily available for hypusination and later transport out in the cytoplasm for functioning as a translation factor. To determine if it were possible to further increase the efficacy or potency of GC7, the inventors co-treated with Tubastatin A (an HDAC6 inhibitor) in 4T1 and 67NR cells as well as MDA-MB-468 cells which initially were not very sensitive to GC7. Triple negative human breast cancer cell line, […], was also used to see if another cell line representative of this breast cancer subtype was sensitive towards DHPS and HDAC6 inhibition. (FIGS. 5A and 5B). Here, are shown cell viability graphs for these four cell lines pretreated with GC7 at 1 μM and after 12 hours were exposed to various concentrations of Tubastatin A (TubA) ranging from 0.1 nM to 100 μM. […] MDA-MB-468 and BT549 cells remained to be insensitive to TubA with or without GC7 pretreatment (FIG. 5A). Next, the inventors performed the opposite cell viability experiment in which these four cell lines were pretreated with TubA at 1 μM and then exposed these cells to various concentrations of GC7 ranging from 0.1 nM to 1 mM. […] 4T1 cells were treated with TubA at 10 μM, GC7 at 10 μM or both drugs simultaneously for 48, 72 and 96 hours. […] To test this, the inventors looked further into the changes of eIF5A localization when treating with TubA, GC7 or both drugs simultaneously. In FIG. 5D is shown immunofluorescence staining of 4T1 cells treated with TubA at 10 μM, GC7 at 10 μM or both drugs at those same concentrations for 48 hours. […] DAPI was used to stain the nuclei shown in the […] channel and phase-contrast images are shown as reference (FIG. 5D). […] Protein lysates were also collected at the same time point described in FIG. 5D. Twenty μg of protein for each condition was run on a Bis-Tris […] gel then transferred onto a nitrocellulose membrane before staining total protein using Ponceau S (FIG. 5E).
as §1

4T1 cells = test: as above; type: cell-based, mouse
Text: as §2, §1

[3] = test system: ZEB1 expression in MCF10CA1a cells; test: qPCR ZEB1 mRNA, TGFβ-induced EMT; type: cell-based, human; conditions: GC7 10 μM pre-treatment, TGFβ 2.5 ng/mL 48 hours, fibronectin
Text: The pathway in which the inventors are interested in targeting eIF5A is in the context of TGFβ-induced EMT and TGFβ is a well-characterized inducer of EMT. […] Phase-contrast images are shown to the right of the western blot to indicate a shift in morphology after treatment with TGFβ. […] Since TGFβ can induce PEAK1 upregulation, while in contrast, hypusinated eIF5A promotes PEAK1 translation, the inventors sought to see if TGFβ alone can upregulate hypusinated eIF5A. Post-translational modifications can occur relatively fast. Therefore short-term treatments of TGFβ on 4T1, 67NR and MCF10CA1a cells were performed initially. Protein lysates were collected after 10, 30 and 120 minutes of treatment and immunoblotted for hypusine, total eIF5A and β-actin (FIG. 4B). […] Relative band intensity is graphed to the right of the western blot in which the ratio between hypusine to total eIF5A is compared first between treated samples to control samples then a ratio is calculated comparing each time point relative to 10 minutes as a starting time point of reference. […] The inventors were also interested in what genes were altered at the transcriptional level when dual treating with TGFβ and GC7 at the same time to block EMT. […]

[4] = TubA 1 μM pretreatment, GC7 0.1 nM to 1 mM

In the case of `N=C(N)NCCCCCCCN.O=S(=O)(O)O` [GC7, N1-Guanyl-1,7-diaminoheptane], the “FOXP3+ T regulatory cell populations” value [1] is given as “significant reduction in FOXP3+ T regulatory cell populations”, the “sensitivity to GC7 treatment” value [2] is given as “insensitive” and the “sensitivity to GC7 treatment” value (MCF10A) is given as “one of the most sensitive”. For the same compound, the “efficacy after GC7 treatment (cell viability)” value (67NR cells; 72 hours, 0.1 nM→1 mM) was “largest efficacy”, the “change of potency of GC7 by TubA pretreatment (cell viability)” value (67NR cells; [4]) was “this effect was not seen in the three other cell lines” and the “efficacy after GC7 treatment (cell viability)” value (4T1 cells; 72 hours, 0.1 nM→1 mM) was “largest efficacy”. For the same compound, the “change of potency of GC7 by TubA pretreatment (cell viability)” value (4T1 cells; [4]) was “subtly decreased” and the “TGFβ-induced EMT (ZEB1 mRNA)” value [3] was “this EMT was blocked”.
